{"source": "patent US20050014812A1", "about": "“Benzimidazole compounds” (Fujisawa Pharmaceutical Co., Ltd., priority 2003, published 2005)"}
{"system": "C57BL/KsJ-db/db (db/db) mice", "experiment": "Plasma glucose and triglyceride lowering in db/db mice (Experimental Example 1)", "type": "in vivo", "conditions": "female db/db mice, 10 mg/kg orally once daily for 7 days, fed state; lean (+m/+m) group = 100% inhibition, db/db control = 0%", "experimental": "Female C57BL/KsJ-db/db (db/db) mice and C57BL/KsJ-+m/+m (lean) mice (5 weeks old) were purchased from Jackson Laboratory, and subjected to the test after 1-2 weeks of acclimating period. Animals were maintained on standard laboratory chow and water ad libitum.\nTest compound was dissolved or suspended in 0.5% methylcellulose solution and administered orally once a day at a volume of 5 mL/kg of body weight.\n• 4-({1-[(3,5-dichloro-2-pyridinyl)methyl]-2,4-dimethyl-1H-benzimidazol-6-yl}oxy)butanoic acid (Example 21) • 4-{[1-(2,4-dichlorobenzyl)-2-ethoxy-4-methyl-1H-benzimidazol-6-yl]oxy}butanoic acid (Example 39) • 2-{[(1-{[3-chloro-5-(trifluoromethyl)-2-pyridinyl]methyl}-2-methyl-1H-benzimidazol-6-yl)oxy]methyl}benzoic acid (Example 75) Test Schedule\nAt 6 weeks of age, blood was obtained from the retro-orbital sinus by capillary pipette with heparin under feeding condition. Mice were divided into groups matched for body weight, plasma glucose and triglyceride. From 6-7 weeks of age, test compound was administered orally once daily for 7 days. On the next morning of the last administration day, body weight was measured and blood was obtained under feeding condition, and plasma glucose and triglyceride were measured.\nPlasma glucose and triglyceride were determined by a mutarotase.glucose oxidase method and a glycerol-3-phosphate oxidase.3,5-dimethoxy-N-ethyl-N-(2′-hydroxy-3′-sulfopropyl)aniline natrium method, respectively, using assay kits from Wako Pure Chemical Industries, Ltd. (Osaka, Japan).\nValues of plasma glucose and triglyceride for the lean group (+m/+m) were set as 100% inhibition, and for the control group (db/db) as 0% inhibition. The inhibition rate of plasma glucose and triglyceride for the test group was determined.", "units": {"Inhibition rate of plasma glucose": "%", "Inhibition rate of plasma triglyceride": "%"}}
{"smiles": "CCOc1nc2c(C)cc(OCCCC(=O)O)cc2n1Cc1ccc(Cl)cc1Cl", "note": "[Example 39, 4-{[1-(2,4-dichlorobenzyl)-2-ethoxy-4-methyl-1H-benzimidazol-6-yl]oxy}butanoic acid]", "Inhibition rate of plasma glucose": 45, "Inhibition rate of plasma triglyceride": 60}
{"smiles": "Cc1cc(OCCCC(=O)O)cc2c1nc(C)n2Cc1ncc(Cl)cc1Cl", "note": "[Example 21, 4-({1-[(3,5-dichloro-2-pyridinyl)methyl]-2,4-dimethyl-1H-benzimidazol-6-yl}oxy)butanoic acid]", "Inhibition rate of plasma glucose": 41, "Inhibition rate of plasma triglyceride": 55}
{"smiles": "Cc1nc2ccc(OCc3ccccc3C(=O)O)cc2n1Cc1ncc(C(F)(F)F)cc1Cl", "note": "[Example 75, 2-{[(1-{[3-chloro-5-(trifluoromethyl)-2-pyridinyl]methyl}-2-methyl-1H-benzimidazol-6-yl)oxy]methyl}benzoic acid]", "Inhibition rate of plasma glucose": 72, "Inhibition rate of plasma triglyceride": 89}
